Results as given in US10961231B2, “NTCP inhibitors” (National Institute of Biological Sciences, Beijing, priority 2018, dated 2021).

These compounds were tested against T1, NTCP (Homo sapiens, UniProt Q14973) (assay: [3H]-TCA uptake assay (NTCP inhibition)). Conditions: IC50, given as a range, marked * (asterisk not explained).
T1 sequence (Q14973 1-349): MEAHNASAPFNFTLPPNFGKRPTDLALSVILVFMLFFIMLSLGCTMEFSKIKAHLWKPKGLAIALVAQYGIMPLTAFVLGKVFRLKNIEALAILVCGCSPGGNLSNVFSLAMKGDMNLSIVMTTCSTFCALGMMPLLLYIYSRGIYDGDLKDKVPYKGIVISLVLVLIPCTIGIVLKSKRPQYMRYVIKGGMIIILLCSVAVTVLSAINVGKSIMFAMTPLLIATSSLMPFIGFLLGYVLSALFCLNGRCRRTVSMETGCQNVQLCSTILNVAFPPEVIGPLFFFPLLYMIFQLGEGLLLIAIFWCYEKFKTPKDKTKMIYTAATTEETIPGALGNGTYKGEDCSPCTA
Assay type: cell-based
Outline: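 Read-out is liquid scintillation counting of Triton X-100 lysates after 15 min, 37° C uptake of 1 μM [3H]-taurocholate in Na+ Ringer's buffer (145 mM Na). Beforehand, PTH and HepG2-NTCP cells had 24 h in PMM for NTCP induction and 2 h of compound or DMSO treatment.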

| SMILES | IC50 |
| --- | --- |
| CCC1NC(=O)C(C2OC(Oc3ccc(Cl)c(OCC4CCOCC4)c3)CC2C)N(C)C(=O)C(C(C)C)N(C)C(=O)C(CC(C)C)N(C)C(=O)C(CC(C)C)N(C)C(=O)C(C)NC(=O)C(C)NC(=O)C(CC(C)C)N(C)C(=O)C(C(C)C)NC(=O)C(CC(C)C)N(C)C(=O)CN(C)C1=O (centres unmarked) [Compound 43A-o] | 1000 to 100000 nM |
| CCC1NC(=O)C(C2OC(Oc3ccc(Cl)c(OCc4ccccc4)c3)CC2C)N(C)C(=O)C(C(C)C)N(C)C(=O)C(CC(C)C)N(C)C(=O)C(CC(C)C)N(C)C(=O)C(C)NC(=O)C(C)NC(=O)C(CC(C)C)N(C)C(=O)C(C(C)C)NC(=O)C(CC(C)C)N(C)C(=O)CN(C)C1=O (centres unmarked) [Compound 44A-o] | 1000 to 100000 nM |
| CCC1NC(=O)C(C2OC(Oc3ccc(Cl)c(OCCOC)c3)CC2C)N(C)C(=O)C(C(C)C)N(C)C(=O)C(CC(C)C)N(C)C(=O)C(CC(C)C)N(C)C(=O)C(C)NC(=O)C(C)NC(=O)C(CC(C)C)N(C)C(=O)C(C(C)C)NC(=O)C(CC(C)C)N(C)C(=O)CN(C)C1=O (centres unmarked) [Compound 45A-o] | 1000 to 100000 nM |
| CCC1NC(=O)C(C2OC(Oc3ccc(Cl)c(OCCO)c3)CC2C)N(C)C(=O)C(C(C)C)N(C)C(=O)C(CC(C)C)N(C)C(=O)C(CC(C)C)N(C)C(=O)C(C)NC(=O)C(C)NC(=O)C(CC(C)C)N(C)C(=O)C(C(C)C)NC(=O)C(CC(C)C)N(C)C(=O)CN(C)C1=O (centres unmarked) [Compound 46A-o] | 1000 to 100000 nM |
| CCC1NC(=O)C(C2OC(Oc3cccc(NC)c3)CC2C)N(C)C(=O)C(C(C)C)N(C)C(=O)C(CC(C)C)N(C)C(=O)C(CC(C)C)N(C)C(=O)C(C)NC(=O)C(C)NC(=O)C(CC(C)C)N(C)C(=O)C(C(C)C)NC(=O)C(CC(C)C)N(C)C(=O)CN(C)C1=O (centres unmarked) [Compound 47A-o] | 1000 to 100000 nM |
| CCC1NC(=O)C(C2OC(Oc3cccc(NCc4ccccc4)c3)CC2C)N(C)C(=O)C(C(C)C)N(C)C(=O)C(CC(C)C)N(C)C(=O)C(CC(C)C)N(C)C(=O)C(C)NC(=O)C(C)NC(=O)C(CC(C)C)N(C)C(=O)C(C(C)C)NC(=O)C(CC(C)C)N(C)C(=O)CN(C)C1=O (centres unmarked) [Compound 48A-o] | 1000 to 100000 nM |
| CCC1NC(=O)C(C2OC(Oc3cccc(N(C)CC)c3)CC2C)N(C)C(=O)C(C(C)C)N(C)C(=O)C(CC(C)C)N(C)C(=O)C(CC(C)C)N(C)C(=O)C(C)NC(=O)C(C)NC(=O)C(CC(C)C)N(C)C(=O)C(C(C)C)NC(=O)C(CC(C)C)N(C)C(=O)CN(C)C1=O (centres unmarked) [Compound 49A-o] | 1000 to 100000 nM |
| CCCN(C)c1cccc(OC2CC(C)C(C3C(=O)NC(CC)C(=O)N(C)CC(=O)N(C)C(CC(C)C)C(=O)NC(C(C)C)C(=O)N(C)C(CC(C)C)C(=O)NC(C)C(=O)NC(C)C(=O)N(C)C(CC(C)C)C(=O)N(C)C(CC(C)C)C(=O)N(C)C(C(C)C)C(=O)N3C)O2)c1 (centres unmarked) [Compound 50A-o] | 1000 to 100000 nM |
| CCC1NC(=O)C(C2OC(Oc3ccc(N(C)C)cc3)CC2C)N(C)C(=O)C(C(C)C)N(C)C(=O)C(CC(C)C)N(C)C(=O)C(CC(C)C)N(C)C(=O)C(C)NC(=O)C(C)NC(=O)C(CC(C)C)N(C)C(=O)C(C(C)C)NC(=O)C(CC(C)C)N(C)C(=O)CN(C)C1=O (centres unmarked) [Compound 51A-o] | 1000 to 100000 nM |

Same assay, conditions: given as a range; assay not given

| SMILES | IC50 |
| --- | --- |
| CCC1NC(=O)C(C2OC(Sc3ccc(Cl)c(OCC4CCOCC4)c3)CC2C)N(C)C(=O)C(C(C)C)N(C)C(=O)C(CC(C)C)N(C)C(=O)C(CC(C)C)N(C)C(=O)C(C)NC(=O)C(C)NC(=O)C(CC(C)C)N(C)C(=O)C(C(C)C)NC(=O)C(CC(C)C)N(C)C(=O)CN(C)C1=O [Compound 43A, [2-((2R,3R)-5-(4-chloro-3-((tetrahydro-2H-pyran-4-yl)methoxy)phenylthio)-3-methyltetrahydrofuran-2-yl)-2-(methylamino)acetic acid]^1-cyclosporin A] | 1 to 1000 nM |
| CCC1NC(=O)C(C2OC(Sc3ccc(Cl)c(OCc4ccccc4)c3)CC2C)N(C)C(=O)C(C(C)C)N(C)C(=O)C(CC(C)C)N(C)C(=O)C(CC(C)C)N(C)C(=O)C(C)NC(=O)C(C)NC(=O)C(CC(C)C)N(C)C(=O)C(C(C)C)NC(=O)C(CC(C)C)N(C)C(=O)CN(C)C1=O [Compound 44A, [2-((2R,3R)-5-(3-(benzyloxy)-4-chlorophenylthio)-3-methyltetrahydrofuran-2-yl)-2-(methylamino)acetic acid]^1-cyclosporin A] | 1 to 1000 nM |
| CCC1NC(=O)C(C2OC(Sc3ccc(Cl)c(OCCOC)c3)CC2C)N(C)C(=O)C(C(C)C)N(C)C(=O)C(CC(C)C)N(C)C(=O)C(CC(C)C)N(C)C(=O)C(C)NC(=O)C(C)NC(=O)C(CC(C)C)N(C)C(=O)C(C(C)C)NC(=O)C(CC(C)C)N(C)C(=O)CN(C)C1=O [Compound 45A, [2-((2R,3R)-5-(4-chloro-3-(2-methoxyethoxy)phenylthio)-3-methyltetrahydrofuran-2-yl)-2-(methylamino)acetic acid]^1-cyclosporin A] | 1 to 1000 nM |
| CCC1NC(=O)C(C2OC(Sc3ccc(Cl)c(OCCO)c3)CC2C)N(C)C(=O)C(C(C)C)N(C)C(=O)C(CC(C)C)N(C)C(=O)C(CC(C)C)N(C)C(=O)C(C)NC(=O)C(C)NC(=O)C(CC(C)C)N(C)C(=O)C(C(C)C)NC(=O)C(CC(C)C)N(C)C(=O)CN(C)C1=O [Compound 46A, [2-((2R,3R)-5-(4-chloro-3-(2-hydroxyethoxy)phenylthio)-3-methyltetrahydrofuran-2-yl)-2-(methylamino)acetic acid]^1-cyclosporin A] | 1 to 1000 nM |
| CCC1NC(=O)C(C2OC(Sc3cccc(NC)c3)CC2C)N(C)C(=O)C(C(C)C)N(C)C(=O)C(CC(C)C)N(C)C(=O)C(CC(C)C)N(C)C(=O)C(C)NC(=O)C(C)NC(=O)C(CC(C)C)N(C)C(=O)C(C(C)C)NC(=O)C(CC(C)C)N(C)C(=O)CN(C)C1=O [Compound 47A, [2-((2R,3R)-3-methyl-5-(3-(methylamino)phenylthio)tetrahydrofuran-2-yl)-2-(methylamino)acetic acid]^1-cyclosporin A] | 1 to 1000 nM |
| CCC1NC(=O)C(C2OC(Sc3cccc(NCc4ccccc4)c3)CC2C)N(C)C(=O)C(C(C)C)N(C)C(=O)C(CC(C)C)N(C)C(=O)C(CC(C)C)N(C)C(=O)C(C)NC(=O)C(C)NC(=O)C(CC(C)C)N(C)C(=O)C(C(C)C)NC(=O)C(CC(C)C)N(C)C(=O)CN(C)C1=O [Compound 48A, [2-((2R,3R)-5-(3-(benzylamino)phenylthio)-3-methyltetrahydrofuran-2-yl)-2-(methylamino)acetic acid]^1-cyclosporin A] | 1 to 1000 nM |
| CCC1NC(=O)C(C2OC(Sc3cccc(N(C)CC)c3)CC2C)N(C)C(=O)C(C(C)C)N(C)C(=O)C(CC(C)C)N(C)C(=O)C(CC(C)C)N(C)C(=O)C(C)NC(=O)C(C)NC(=O)C(CC(C)C)N(C)C(=O)C(C(C)C)NC(=O)C(CC(C)C)N(C)C(=O)CN(C)C1=O [Compound 49A, [2-((2R,3R)-5-(3-(ethyl(methyl)amino)phenylthio)-3-methyltetrahydrofuran-2-yl)-2-(methylamino)acetic acid]^1-cyclosporin A] | 1 to 1000 nM |
| CCCN(C)c1cccc(SC2CC(C)C(C3C(=O)NC(CC)C(=O)N(C)CC(=O)N(C)C(CC(C)C)C(=O)NC(C(C)C)C(=O)N(C)C(CC(C)C)C(=O)NC(C)C(=O)NC(C)C(=O)N(C)C(CC(C)C)C(=O)N(C)C(CC(C)C)C(=O)N(C)C(C(C)C)C(=O)N3C)O2)c1 [Compound 50A, [2-((2R,3R)-3-methyl-5-(3-(methyl(propyl)amino)phenylthio)tetrahydrofuran-2-yl)-2-(methylamino)acetic acid]^1-cyclosporin A] | 1 to 1000 nM |
